Here are results for 7 molecules from patent US11535607B2, “Isoindolines as HDAC inhibitors” (Valo Health, Inc., priority 2018, dated 2022).

Data set [1] addresses HDAC11 fused to Nanoluc luciferase (Homo sapiens (Human), UniProt Q96DB2). Kind of data set: BRET target engagement cell assay.
Data set [2] concerns the target T1, full-length human HDAC11 (Homo sapiens (Human), UniProt Q96DB2). The experiment in a line: HDAC11 deacetylase electrophoretic mobility shift assay (Nanosyn). Format: biochemical. Particulars: for IC50: mobility shift assay. The protocol: The measurement of HD AC 11 deacetylase activity was performed using an electrophoretic mobility shift assay by Nanosyn (Santa Clara, Calif.). Full length human recombinant HD AC 11 protein was expressed in baculoviral system and purified by affinity chromatography. The enzymatic reactions were assembled in 384 well plates in a total volume of 25 μL in a reaction buffer composing: 100 mM HEPES, pH 7.5, 25 mM KCl, 0.1% bovine serum albumin, 0.01% Triton X-100, 1% DMSO (from compounds), 2 μM of the fluorescently labeled peptide substrate and enzyme. The enzyme was added at a final concentration of 10 nM. The peptide substrate FAM-RHKK(tri-fluor-Ac)—NH2 was used. The compounds were tested at 12 concentrations spaced by 3× dilution intervals. Negative control samples (0%-inhibition in the absence of inhibitor) and positive control samples (100%-inhibition) were assembled in replicates of four in each assay plate. The reactions were incubated at 25° C. and quenched by the addition of 45 μL of termination buffer (100 mM HEPES, pH 7.5, 0.01% Triton X-100, 0.05% SDS).
The terminated assay plates were analyzed on LabChip® 3000 microfluidic electrophoresis instrument (Perkin Elmer/Caliper Life Sciences). The fluorescence intensity of the electrophoretically separated de-acetylated product and substrate peptide was measured. Activity in each sample was determined as the product to sum ratio (PSR): P/(S+P), where P is the peak height of the product peptide and S is the peak height of the substrate peptide. Percent inhibition (Pinh) is determined using the following equation: Pinh=(PSR0%−PSRinh)/(PSR0%−PSR100%)*100, where PSRinh, is the product sum ratio in the presence of inhibitor, PSR0% is the average product sum ration in the absence of inhibitor and PSR100% is the average product sum ratio in 100%-inhibition control samples. The IC50 values of inhibitors were determined by fitting the percent inhibition curves with 4 parameter dose-response model using XLfit 4 software.
(Mobility shift assays separate free from complexed probe on a gel.)

Data set [3] concerns the target T1, full-length human HDAC11. The experiment in a line: Probe binding HDAC11 time resolved fluorescence (TRF) assay. Particulars: Table 2, read-out: HDAC11 IC50 Range.
In the next data set the target is HDAC11 (Homo sapiens (Human), UniProt Q96DB2). Kind of data set: Lipophilic efficiency (pIC50 HDAC11 - clogD7.4). Particulars: pIC50 HDAC11 - clogD7.4, Table 6.
Sequence of HDAC11 (Q96DB2 whole entry): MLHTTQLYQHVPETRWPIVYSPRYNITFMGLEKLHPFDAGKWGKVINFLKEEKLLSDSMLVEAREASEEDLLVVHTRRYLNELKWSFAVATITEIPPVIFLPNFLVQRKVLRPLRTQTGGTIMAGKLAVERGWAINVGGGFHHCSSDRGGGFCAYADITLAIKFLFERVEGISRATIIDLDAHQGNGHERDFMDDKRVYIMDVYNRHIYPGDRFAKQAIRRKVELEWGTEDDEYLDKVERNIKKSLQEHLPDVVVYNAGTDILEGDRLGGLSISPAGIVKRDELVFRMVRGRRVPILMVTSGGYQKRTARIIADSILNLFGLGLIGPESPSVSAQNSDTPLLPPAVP
Data set [4] in a line: In vitro intrinsic clearance after incubation with mouse liver microsomes. Particulars: Table 6. Format: in vitro ADME. On the technique in general: Microsomes from liver hold many membrane-bound enzymes, among them those of drug oxidation.
Data set [5] in a line: Kinetic solubility at pH 7.4. It is filed as physicochemical. Particulars: aqueous buffer, kinetic from dmso stock.
The next data set has as its target HDAC3 (Homo sapiens (Human), UniProt O15379). Kind of data set: HDAC3 electrophoretic mobility shift assay. Particulars: Table 7, read-out: HDAC IC50, HDAC 3. It is filed as biochemical.
In a further data set the target is HDAC6 (Homo sapiens (Human), UniProt Q9UBN7). Kind of data set: HDAC6 electrophoretic mobility shift assay. It is filed as biochemical. Particulars: mobility shift assay, Table 7; read-out: HDAC IC50, HDAC 6.
Data set [6] deals with other 10 members of the HDAC family. The experiment in a line: HDAC family selectivity profile, electrophoretic mobility shift assays. It is filed as biochemical, human. Particulars: HDAC 1-11 profile.
The next data set deals with HDAC1 (Homo sapiens (Human), UniProt Q13547). The experiment in a line: HDAC1 electrophoretic mobility shift assay. It is filed as biochemical. Particulars: Table 7, read-out: HDAC IC50, HDAC 1.
Sequence of HDAC1 (Q13547 whole entry): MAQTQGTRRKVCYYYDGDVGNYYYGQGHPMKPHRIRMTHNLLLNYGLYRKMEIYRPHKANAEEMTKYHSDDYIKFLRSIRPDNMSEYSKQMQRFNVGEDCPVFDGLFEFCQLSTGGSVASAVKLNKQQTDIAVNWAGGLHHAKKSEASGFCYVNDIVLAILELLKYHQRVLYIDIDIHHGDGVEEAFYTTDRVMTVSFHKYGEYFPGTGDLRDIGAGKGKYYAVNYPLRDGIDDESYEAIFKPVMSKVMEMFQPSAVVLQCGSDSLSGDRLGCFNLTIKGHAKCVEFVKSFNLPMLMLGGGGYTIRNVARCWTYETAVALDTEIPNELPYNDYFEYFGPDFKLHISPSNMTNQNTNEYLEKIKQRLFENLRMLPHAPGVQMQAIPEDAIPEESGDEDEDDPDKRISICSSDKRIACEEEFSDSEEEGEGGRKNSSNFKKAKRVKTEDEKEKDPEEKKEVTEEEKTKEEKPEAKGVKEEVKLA
A further data set addresses HDAC9 (Homo sapiens (Human), UniProt Q9UKV0). Kind of data set: HDAC9 electrophoretic mobility shift assay. It is filed as biochemical. Particulars: Table 7, read-out: HDAC IC50, HDAC 9.
The target in the next data set is HDAC2 (Homo sapiens (Human), UniProt Q92769). Kind of data set: HDAC2 electrophoretic mobility shift assay. Particulars: Table 7, read-out: HDAC IC50, HDAC 2. It is filed as biochemical.
For another data set, the target named is HDAC5 (Homo sapiens (Human), UniProt Q9UQL6). The experiment in a line: HDAC5 electrophoretic mobility shift assay. It is filed as biochemical. Particulars: Table 7, read-out: HDAC IC50, HDAC 5.
Sequence of HDAC5 (Q9UQL6 whole entry): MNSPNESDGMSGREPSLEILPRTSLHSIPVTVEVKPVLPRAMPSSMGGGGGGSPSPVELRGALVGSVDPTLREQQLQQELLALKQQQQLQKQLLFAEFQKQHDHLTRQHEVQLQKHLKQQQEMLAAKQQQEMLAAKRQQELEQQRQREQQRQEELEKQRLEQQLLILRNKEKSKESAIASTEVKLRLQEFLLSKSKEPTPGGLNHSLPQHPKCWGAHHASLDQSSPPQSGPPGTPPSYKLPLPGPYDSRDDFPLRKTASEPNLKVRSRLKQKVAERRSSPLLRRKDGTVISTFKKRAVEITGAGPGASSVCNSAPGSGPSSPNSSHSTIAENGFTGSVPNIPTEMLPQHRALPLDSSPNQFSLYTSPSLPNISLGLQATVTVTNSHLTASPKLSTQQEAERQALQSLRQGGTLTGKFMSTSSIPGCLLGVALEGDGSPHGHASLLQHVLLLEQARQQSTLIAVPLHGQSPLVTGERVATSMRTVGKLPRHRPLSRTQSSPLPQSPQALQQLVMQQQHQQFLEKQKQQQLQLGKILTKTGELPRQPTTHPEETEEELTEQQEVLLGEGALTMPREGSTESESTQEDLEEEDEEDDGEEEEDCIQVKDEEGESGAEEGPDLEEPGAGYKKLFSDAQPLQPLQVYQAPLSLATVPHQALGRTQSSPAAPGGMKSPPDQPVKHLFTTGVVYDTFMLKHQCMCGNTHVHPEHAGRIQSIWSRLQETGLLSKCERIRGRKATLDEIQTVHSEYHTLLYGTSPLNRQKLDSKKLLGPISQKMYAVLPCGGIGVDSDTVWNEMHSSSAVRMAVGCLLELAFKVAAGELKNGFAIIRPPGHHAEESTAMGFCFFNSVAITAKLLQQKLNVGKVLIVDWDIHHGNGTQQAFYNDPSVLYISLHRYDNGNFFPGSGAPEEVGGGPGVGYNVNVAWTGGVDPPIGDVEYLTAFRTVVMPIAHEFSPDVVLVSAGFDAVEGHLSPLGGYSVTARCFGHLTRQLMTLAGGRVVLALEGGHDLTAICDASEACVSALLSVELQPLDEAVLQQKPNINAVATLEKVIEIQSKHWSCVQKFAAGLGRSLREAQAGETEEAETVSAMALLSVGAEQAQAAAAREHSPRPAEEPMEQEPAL
The next data set concerns the target HDAC8 (Homo sapiens (Human), UniProt Q9BY41). The experiment in a line: HDAC8 electrophoretic mobility shift assay. It is filed as biochemical. Particulars: Table 7, read-out: HDAC IC50, HDAC 8.
The target of another data set is HDAC10 (Homo sapiens (Human), UniProt Q969S8). The experiment in a line: HDAC10 electrophoretic mobility shift assay. Format: biochemical. Particulars: Table 7, read-out: HDAC IC50, HDAC 10.
Sequence of HDAC10 (Q969S8 whole entry): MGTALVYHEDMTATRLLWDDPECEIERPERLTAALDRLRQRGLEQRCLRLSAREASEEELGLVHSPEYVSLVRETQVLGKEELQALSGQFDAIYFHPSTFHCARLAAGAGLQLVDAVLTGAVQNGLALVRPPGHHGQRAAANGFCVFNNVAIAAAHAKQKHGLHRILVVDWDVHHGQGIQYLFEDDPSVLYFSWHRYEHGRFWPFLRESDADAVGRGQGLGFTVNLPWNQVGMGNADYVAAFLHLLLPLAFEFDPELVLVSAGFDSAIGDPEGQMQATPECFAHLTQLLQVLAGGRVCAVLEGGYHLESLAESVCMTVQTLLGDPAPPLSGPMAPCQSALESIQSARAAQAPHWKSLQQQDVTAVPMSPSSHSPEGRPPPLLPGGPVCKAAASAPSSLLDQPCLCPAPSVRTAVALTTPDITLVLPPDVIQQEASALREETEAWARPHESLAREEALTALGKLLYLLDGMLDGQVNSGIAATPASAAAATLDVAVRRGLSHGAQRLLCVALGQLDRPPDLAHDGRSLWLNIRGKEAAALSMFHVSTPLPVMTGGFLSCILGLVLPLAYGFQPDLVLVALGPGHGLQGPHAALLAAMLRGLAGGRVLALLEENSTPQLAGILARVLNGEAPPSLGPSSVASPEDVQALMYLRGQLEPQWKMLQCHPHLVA
A further data set addresses HDAC7 (Homo sapiens (Human), UniProt Q8WUI4). The experiment in a line: HDAC7 electrophoretic mobility shift assay. Particulars: Table 7, read-out: HDAC IC50, HDAC 7. It is filed as biochemical.
Another data set concerns the target HDAC4 (Homo sapiens (Human), UniProt P56524). Kind of data set: HDAC4 electrophoretic mobility shift assay. Format: biochemical. Particulars: Table 7, read-out: HDAC IC50, HDAC 4.
Data set [7] in a line: Mouse pharmacokinetic study (i.v. and i.p.). It is filed as in vivo. How it is done: Based on its overall in vitro profile, 22-8 was advanced to mouse PK studies to measure its suitability as an in vivo tool compound. The pharmacokinetic properties of 22-8 were assessed in male Balb/c nude mice following both intravenous (i.v.) and intraperitoneal (i.p.) dosing (Table 8).

Where [8] appears, read: read-out: HDAC11 BRET IC50, BRET cell assay, Table 6.
[9] abbreviates: IP 5 mg/kg, male Balb/c nude mice.
Where [10] appears, read: mouse, in vivo, IP 5 mg/kg, male Balb/c nude mice.
[11] abbreviates: mouse, in vivo, IV 1 mg/kg, male Balb/c nude mice.

The term IC50 denotes the midpoint of a concentration-inhibition curve. As usually defined, the microsomal CLint is the capacity of the preparation to metabolise the compound, expressed as a volume cleared per time. A high value points to faster metabolism. By solubility is commonly meant how much of the substance goes into solution per volume. A high value points to much dissolved substance. The AUC(0-t) is exposure summed from dosing to a finite time, without extrapolation to infinity. Low values mean less exposure, high ones more exposure. A word on the Cmax: it is the maximum level reached in the sampled fluid or tissue. Broadly, the half-life is how long it takes for the measured level to halve. Read a low half-life as rapid decline.

≈ marks a conversion by molar mass, not a printed value. Where two headings read alike, the source gives them in different places. Some results are limits rather than exact numbers.

T1 sequence (Q96DB2 whole entry): as the sequence (Q96DB2 whole entry) above
Sequence of HDAC11 fused to Nanoluc luciferase (Q96DB2 whole entry, the tested form may be a part): as the sequence (Q96DB2 whole entry) above
Sequence of HDAC9 (Q9UKV0 whole entry): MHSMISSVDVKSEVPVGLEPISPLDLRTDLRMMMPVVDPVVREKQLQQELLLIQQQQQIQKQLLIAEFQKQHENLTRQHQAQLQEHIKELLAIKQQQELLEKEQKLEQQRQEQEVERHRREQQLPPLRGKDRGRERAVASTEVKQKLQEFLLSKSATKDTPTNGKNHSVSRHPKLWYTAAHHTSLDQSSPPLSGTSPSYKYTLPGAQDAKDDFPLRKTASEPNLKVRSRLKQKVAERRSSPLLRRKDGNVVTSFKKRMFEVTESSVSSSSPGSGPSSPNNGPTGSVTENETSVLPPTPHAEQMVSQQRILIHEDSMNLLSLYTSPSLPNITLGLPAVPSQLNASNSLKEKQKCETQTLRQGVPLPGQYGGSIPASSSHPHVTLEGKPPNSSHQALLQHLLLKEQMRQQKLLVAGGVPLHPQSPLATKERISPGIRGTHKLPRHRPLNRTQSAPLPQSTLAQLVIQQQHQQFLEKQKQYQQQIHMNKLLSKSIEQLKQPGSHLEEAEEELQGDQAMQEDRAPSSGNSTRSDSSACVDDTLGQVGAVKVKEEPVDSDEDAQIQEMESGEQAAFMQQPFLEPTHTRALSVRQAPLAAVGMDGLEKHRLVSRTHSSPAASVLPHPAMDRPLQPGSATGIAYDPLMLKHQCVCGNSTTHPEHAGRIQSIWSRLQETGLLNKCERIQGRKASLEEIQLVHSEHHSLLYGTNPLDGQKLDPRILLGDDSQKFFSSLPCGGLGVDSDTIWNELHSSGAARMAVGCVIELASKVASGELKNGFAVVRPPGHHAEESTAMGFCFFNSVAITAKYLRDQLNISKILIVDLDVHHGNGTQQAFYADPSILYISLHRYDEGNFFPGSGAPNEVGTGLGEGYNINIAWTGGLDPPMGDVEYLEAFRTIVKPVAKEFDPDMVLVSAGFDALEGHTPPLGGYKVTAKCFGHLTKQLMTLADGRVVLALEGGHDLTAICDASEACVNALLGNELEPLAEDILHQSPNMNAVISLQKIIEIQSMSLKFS
Sequence of HDAC7 (Q8WUI4 whole entry): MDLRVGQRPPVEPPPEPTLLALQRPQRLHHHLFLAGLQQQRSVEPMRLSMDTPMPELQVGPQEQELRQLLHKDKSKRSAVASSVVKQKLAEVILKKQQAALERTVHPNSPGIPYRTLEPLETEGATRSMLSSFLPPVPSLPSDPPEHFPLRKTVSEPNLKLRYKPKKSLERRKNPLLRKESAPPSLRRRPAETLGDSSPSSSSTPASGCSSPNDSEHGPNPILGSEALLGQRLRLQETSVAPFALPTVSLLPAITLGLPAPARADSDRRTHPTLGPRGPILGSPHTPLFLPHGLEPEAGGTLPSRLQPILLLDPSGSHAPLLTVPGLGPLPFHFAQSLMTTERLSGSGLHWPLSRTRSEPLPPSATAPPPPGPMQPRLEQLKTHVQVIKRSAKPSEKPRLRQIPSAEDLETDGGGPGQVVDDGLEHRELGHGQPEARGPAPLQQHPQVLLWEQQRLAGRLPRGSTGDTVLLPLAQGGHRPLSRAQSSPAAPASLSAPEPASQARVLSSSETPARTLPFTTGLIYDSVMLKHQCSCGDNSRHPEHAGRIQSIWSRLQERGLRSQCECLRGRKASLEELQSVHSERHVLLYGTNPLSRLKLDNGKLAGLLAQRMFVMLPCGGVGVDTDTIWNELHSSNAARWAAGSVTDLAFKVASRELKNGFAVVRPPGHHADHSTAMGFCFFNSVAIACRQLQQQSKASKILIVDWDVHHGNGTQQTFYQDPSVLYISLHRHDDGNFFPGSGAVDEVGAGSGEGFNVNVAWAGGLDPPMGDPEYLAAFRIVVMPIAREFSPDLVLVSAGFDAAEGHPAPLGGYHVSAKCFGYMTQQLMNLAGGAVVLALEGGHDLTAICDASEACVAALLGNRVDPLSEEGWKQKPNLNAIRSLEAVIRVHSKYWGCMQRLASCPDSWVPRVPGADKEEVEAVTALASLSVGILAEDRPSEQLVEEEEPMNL
Sequence of HDAC8 (Q9BY41 whole entry, species assumed): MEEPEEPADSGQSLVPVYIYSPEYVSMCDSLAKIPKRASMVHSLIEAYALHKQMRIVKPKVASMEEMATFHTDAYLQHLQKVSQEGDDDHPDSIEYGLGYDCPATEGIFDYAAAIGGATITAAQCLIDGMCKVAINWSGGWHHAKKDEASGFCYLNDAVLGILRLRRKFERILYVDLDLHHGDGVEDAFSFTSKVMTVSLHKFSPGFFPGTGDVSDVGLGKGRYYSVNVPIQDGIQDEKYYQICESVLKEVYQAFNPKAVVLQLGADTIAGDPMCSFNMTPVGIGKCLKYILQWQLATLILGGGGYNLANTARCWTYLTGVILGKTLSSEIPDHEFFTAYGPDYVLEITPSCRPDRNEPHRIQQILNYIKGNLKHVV

Regarding `CC1(C)c2cccc(C(=O)NO)c2CN1c1ncc(C(F)(F)F)cn1` [Compound 22-6, N-hydroxy-1,1-dimethyl-2-(5-(trifluoromethyl)pyrimidin-2-yl)isoindoline-4-carboxamide], the IC50 in [1] (setting [8]) is < 0.5 µM; on full-length human HDAC11 [2] (Table 6, read-out: HDAC11 IC50) it was < 0.5 µM; on full-length human HDAC11 [3], < 0.5 µM. Further, the LipE entry on HDAC11 is “++ (indicates 5.5<LipE≤6.5)”. Further, the microsomal CLint in data set [4] was < 50 µL/min/mg. Besides, the solubility in data set [5] lay in the range of 30 to 55 µM (≈ 10.6 to 19.4 µg/mL).

For `CC1(C)c2cccc(C(N)=O)c2CN1c1cnc(C(F)(F)F)cn1` [Compound 50-1, 1,1-Dimethyl-2-(5-(trifluoromethyl)pyrazin-2-yl)isoindoline-4-carboxamide], the IC50 is > 1 µM on HDAC3; > 1 µM in [1]; > 1 µM at HDAC6; > 1 µM at HDAC1; > 1 µM at HDAC9; > 1 µM on full-length human HDAC11 [2] (Table 6, read-out: HDAC11 IC50). Besides, the IC50 on full-length human HDAC11 [2] (Table 7, read-out: HDAC IC50, HDAC 11) is > 1 µM; at HDAC2, > 1 µM; at HDAC5, > 1 µM; at HDAC8, > 1 µM; on HDAC10, > 1 µM; on HDAC7, > 1 µM. Besides, the IC50 on HDAC4 was > 1 µM. Besides, the “activity against all HDACs, in words” value in data set [6] is “inactive against all HDACs”. For the same molecule, the “HDAC11 potency, in words” value on full-length human HDAC11 [2] (comparison with parent or lead compound) is “loss of all HDAC11 activity”. Moreover, on HDAC11, the LipE entry is recorded as “+ (indicates LipE≤5.5)”. Also, the microsomal CLint in data set [4] was < 50 µL/min/mg. Also, the solubility in data set [5] is ≤ 30 µM.

Consider `CC1(C)c2cccc(C(=O)NO)c2CN1c1ccc(C(F)(F)F)nc1` [Compound 22-3, N-hydroxy-1,1-dimethyl-2-(6-(trifluoromethyl)pyridin-3-yl)isoindoline-4-carboxamide], for which the IC50 in data set [1] was < 0.02 µM; in data set [1] (setting [8]), < 0.5 µM; at full-length human HDAC11 [2] (Table 6, read-out: HDAC11 IC50), < 0.5 µM; at full-length human HDAC11 [3] it was < 0.5 µM. Besides, on HDAC11, the LipE result is on record as “++ (indicates 5.5<LipE≤6.5)”. In addition, the intrinsic metabolic clearance (microsomal CLint) in data set [4] is < 50 µL/min/mg. The solubility in [5] was 30 to 55 µM (≈ 10.5 to 19.3 µg/mL).

Take `CC1(C)c2cccc(C(=O)NO)c2CN1c1cnc(C(F)(F)F)nc1` [Compound 22-7, N-hydroxy-1,1-dimethyl-2-(2-(trifluoromethyl)pyrimidin-5-yl)isoindoline-4-carboxamide]: the IC50 in data set [1] (setting [8]) is < 0.5 µM; at full-length human HDAC11 [2] (Table 6, read-out: HDAC11 IC50), < 0.5 µM; at full-length human HDAC11 [3], < 0.5 µM. Moreover, the LipE entry on HDAC11 is reported as “++ (indicates 5.5<LipE≤6.5)”. Besides, the microsomal CLint in data set [4] is < 50 µL/min/mg. Further, in data set [5], the solubility is > 55 µM.

For the molecule `CC1(C)c2cccc(C(=O)NO)c2CN1c1nc2ncccc2o1` [Compound 18-2, N-hydroxy-1,1-dimethyl-2-(oxazolo[4,5-b]pyridin-2-yl)isoindoline-4-carboxamide], the IC50 was < 0.5 µM in data set [1] (setting [8]); < 0.5 µM at full-length human HDAC11 [2] (Table 6, read-out: HDAC11 IC50); < 0.5 µM at full-length human HDAC11 [3]. Moreover, at HDAC11, the LipE result is “+++ (indicates a LipE>6.5)”. The microsomal CLint in data set [4] is < 50 µL/min/mg. For the same molecule, the solubility in data set [5] was > 55 µM.

Regarding `CC1(C)c2cccc(C(=O)NO)c2CN1c1cnc(C(F)(F)F)cn1` [Compound 22-8, N-Hydroxy-1,1-dimethyl-2-(5-(trifluoromethyl)pyrazin-2-yl)isoindoline-4-carboxamide], in [7] (setting [9]), the Bioavailability was 81 % F and the t1/2 is on record as 10.2 h. In addition, the t1/2 in data set [7] (IV 1 mg/kg, male Balb/c nude mice) worked out at 9.4 h. In data set [7] (setting [10]), this molecule gave an AUC(0-t) of 3.8 µM·h, a Cmax of 4.2 µM and a half-life of 10.2 h. In data set [7] (setting [11]), this molecule had an AUC(0-t) of 1 µM·h, a C0 of 3.5 µM, a clearance of 42 mL/min/kg and a half-life of 9.4 h. For the same molecule, the Vd in [7] (mouse, in vivo, IV 1 mg/kg, male Balb/c nude mice, read-out: Vss) was found to be 18 L/kg. The “time free drug levels maintained over the cellular IC50” value in data set [7] (single 5 mg/kg i.p. dose, mice) is “up to 4 h”. Moreover, at HDAC9, the IC50 was > 1 µM. Also, the IC50 on HDAC5 was > 1 µM. Further, in data set [4], the microsomal CLint is < 50 µL/min/mg. Further, the IC50 on HDAC7 is > 1 µM. This molecule yielded a solubility in data set [5] of 30 to 55 µM (≈ 10.6 to 19.4 µg/mL).

With `CC1(C)c2cccc(C(=O)NO)c2CN1c1ccc(C(F)(F)F)cn1` [Compound 22-2, N-hydroxy-1,1-dimethyl-2-(5-(trifluoromethyl)pyridin-2-yl)isoindoline-4-carboxamide], the IC50 in data set [1] (setting [8]) is < 0.5 µM; on full-length human HDAC11 [2] (Table 6, read-out: HDAC11 IC50), < 0.5 µM; on full-length human HDAC11 [3] it was < 0.5 µM. At HDAC11, the LipE result was “++ (indicates 5.5<LipE≤6.5)”. Further, the microsomal CLint in data set [4] was < 50 µL/min/mg. Also, the solubility in [5] is ≤ 30 µM.
